{
  "source": "patent US20250084041A1",
  "about": "“ANTIMICROBIAL COMPOUNDS AND METHODS” (Curza Global, LLC, priority 2021, published 2025)",
  "key": {"S. aureus (Sa)": {"system": "S. aureus (Sa)", "test": "Broth microdilution MIC, S. aureus", "format": "cell-based", "conditions": "Staphylococcus aureus; S. aureus; CAMHB supplemented with sodium bicarbonate 25 mM; read-out: Sa + bicarb 25 (MIC)", "method_in_brief": "(§1)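 CLSI broth microdilution (M07-A9, slightly modified): two-fold serial dilutions in CAMHB, CAMHB plus 25 mM sodium bicarbonate, or CAMHB with 0-50% heat-inactivated human serum, 8 dilutions in triplicate. Inoculum 5×10^4 CFU/well from 0.5 McFarland cultures grown at 35±2° C.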"}, "E. coli S30 extract": {"system": "E. coli S30 extract", "test": "E. coli S30 extract: inhibition of bacterial protein synthesis (luciferase)", "format": "biochemical", "conditions": "37° C. 1 hour", "method_in_brief": "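Coupled transcription-translation in E. coli S30 extract, programmed with pBESTluc plasmid, was run with 8-point 2-fold compound dilutions for 1 h at 37 °C. After a cold stop, luciferase luminescence was read and percent inhibition calculated against no-inhibitor controls.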"}, "[1]": {"target": "Rabbit Reticulocyte Lysate", "test": "Rabbit Reticulocyte Lysate: inhibition of eukaryotic protein synthesis (luciferase)", "format": "biochemical", "conditions": "30° C. 90 minutes, read-out: Retic. IC50", "method_in_brief": "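Nuclease-treated rabbit reticulocyte lysate translating luciferase control RNA with complete amino acids; compounds in 8-point 2-fold dilutions, 90 min at 30° C. Luminescence read after luciferase reagent; % inhibition versus water (no-inhibitor) control, no-RNA wells as background.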"}, "P. aeruginosa (Pa)": {"system": "P. aeruginosa (Pa)", "test": "Broth microdilution MIC, P. aeruginosa", "format": "cell-based", "conditions": "Pseudomonas aeruginosa; P. aeruginosa; CAMHB supplemented with sodium bicarbonate 25 mM; read-out: Pa + bicarb 25 (MIC)", "method_in_brief": "as §1"}, "E. coli (Ec)": {"system": "E. coli (Ec)", "test": "Broth microdilution MIC, E. coli", "format": "cell-based", "conditions": "Escherichia coli; E. coli; CAMHB supplemented with sodium bicarbonate 25 mM; read-out: E. coli + bicarb 25 (MIC)", "method_in_brief": "as §1"}, "A. baumannii (Ab)": {"system": "A. baumannii (Ab)", "test": "Broth microdilution MIC, A. baumannii", "format": "cell-based", "conditions": "Acinetobacter baumannii, A. baumannii; CAMHB supplemented with sodium bicarbonate 25 mM; read-out: Ab + bicarb 25 (MIC)", "method_in_brief": "as §1"}, "E. faecalis (Ef)": {"system": "E. faecalis (Ef)", "test": "Broth microdilution MIC, E. faecalis", "format": "cell-based", "conditions": "Enterococcus faecalis, E. faecalis; CAMHB supplemented with sodium bicarbonate 25 mM; read-out: Ef + bicarb 25 (MIC)", "method_in_brief": "as §1"}},
  "data": [
    {"smiles": "CCN(C[C@H]1CC[C@H](n2ccc(N)nc2=O)CC1)[C@H]1CC[C@H](N)CC1", "note": "[Compound 54, 4-amino-1-((trans)-4-((((trans)-4-aminocyclohexyl)(ethyl)amino)methyl)cyclohexyl)pyrimidin-2(1H)-one]", "values": [
      {"measurement": "MIC", "setting": "S. aureus (Sa)", "result": "> 32", "unit": "µg/mL"},
      {"measurement": "IC50", "setting": "E. coli S30 extract", "result": "≥ 1000", "unit": "nM"},
      {"measurement": "IC50", "setting": "[1]", "result": "≥ 1000", "unit": "nM"},
      {"measurement": "MIC", "setting": "P. aeruginosa (Pa)", "result": "> 32", "unit": "µg/mL"},
      {"measurement": "MIC", "setting": "E. coli (Ec)", "result": "> 32", "unit": "µg/mL"},
      {"measurement": "MIC", "setting": "A. baumannii (Ab)", "result": "> 32", "unit": "µg/mL"},
      {"measurement": "MIC", "setting": "E. faecalis (Ef)", "result": "> 32", "unit": "µg/mL"}
    ]}
  ]
}
